Test results reported in ChEMBL document CHEMBL1201861, “Genomics of Drug Sensitity in Cancer screening data, Wellcome Trust Sanger Institute”.
pIC50: −log10 of the molar value. Structures can show the parent of a compound that is named as a salt.

Legend:
Experiment in all cases: cells
Assay type in all cases: functional, cell-based, Homo sapiens
COLO-824 = conditions: Homo sapiens, COLO-824
Description: SANGER: Inhibition of human COLO-824 cell growth in a cell viability assay.

DEL = conditions: Homo sapiens, DEL;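 note: growth inhibition of the human DEL cell line, read out with a cell viability assay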
Description: SANGER: Inhibition of human DEL cell growth in a cell viability assay.

DSH1 = conditions: Homo sapiens, DSH1;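 note: growth inhibition of human DSH1 cells, measured with a cell viability readout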
Description: SANGER: Inhibition of human DSH1 cell growth in a cell viability assay.

DU-4475 = conditions: Homo sapiens, DU-4475
Description: SANGER: Inhibition of human DU-4475 cell growth in a cell viability assay.

EW-13 = conditions: Homo sapiens, EW-13;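 note: growth inhibition of EW-13 cells, read out with a cell viability assay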
Description: SANGER: Inhibition of human EW-13 cell growth in a cell viability assay.

GCIY = conditions: Homo sapiens, GCIY;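 note: growth inhibition of the human GCIY cell line, read out by a cell viability assay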
Description: SANGER: Inhibition of human GCIY cell growth in a cell viability assay.

GI-1 = conditions: Homo sapiens, GI-1;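 note: growth inhibition of human GI-1 cells, measured with a cell viability readout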
Description: SANGER: Inhibition of human GI-1 cell growth in a cell viability assay.

GOTO = conditions: Homo sapiens, GOTO;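 note: growth inhibition of GOTO cells, read out by a cell viability assay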
Description: SANGER: Inhibition of human GOTO cell growth in a cell viability assay.

HC-1 = conditions: Homo sapiens, HC-1;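 note: growth inhibition of HC-1 cells measured by a cell viability assay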
Description: SANGER: Inhibition of human HC-1 cell growth in a cell viability assay.

HCC2218 = conditions: Homo sapiens, HCC2218;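 note: cell viability assay read-out, with IC50 given as the concentration that inhibits growth of the cell line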
Description: SANGER: Inhibition of human HCC2218 cell growth in a cell viability assay.

IST-MES1 = conditions: Homo sapiens, IST-MES1;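 note: growth inhibition of IST-MES1 cells, measured with a cell viability assay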
Description: SANGER: Inhibition of human IST-MES1 cell growth in a cell viability assay.

IST-SL1 = conditions: Homo sapiens, IST-SL1;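 note: growth inhibition of human IST-SL1 cells, read out with a cell viability assay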
Description: SANGER: Inhibition of human IST-SL1 cell growth in a cell viability assay.

J-RT3-T3-5 = conditions: Homo sapiens, J-RT3-T3-5;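 note: cell viability assay measuring growth inhibition of human J-RT3-T3-5 cells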
Description: SANGER: Inhibition of human J-RT3-T3-5 cell growth in a cell viability assay.

K5 = conditions: Homo sapiens, K5
Description: SANGER: Inhibition of human K5 cell growth in a cell viability assay.

KLE = conditions: Homo sapiens, KLE;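 note: growth inhibition of human KLE cells, read out with a cell viability assay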
Description: SANGER: Inhibition of human KLE cell growth in a cell viability assay.

KP-N-YS = conditions: Homo sapiens, KP-N-YS;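 note: cell viability assay measuring inhibition of cell line growth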
Description: SANGER: Inhibition of human KP-N-YS cell growth in a cell viability assay.

KU812 cell line = conditions: Homo sapiens, KU812;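 note: growth inhibition of KU812 cells, read out with a cell viability assay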
Description: SANGER: Inhibition of human KU812 cell growth in a cell viability assay.

L-428 = conditions: Homo sapiens, L-428
Description: SANGER: Inhibition of human L-428 cell growth in a cell viability assay.

LAMA-84 = conditions: Homo sapiens, LAMA-84;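 note: growth inhibition of LAMA-84 cells, read out with a cell viability assay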
Description: SANGER: Inhibition of human LAMA-84 cell growth in a cell viability assay.

LNCaP-Clone-FGC = conditions: Homo sapiens, LNCaP-Clone-FGC
Description: SANGER: Inhibition of human LNCaP-Clone-FGC cell growth in a cell viability assay.

MMAC-SF = conditions: Homo sapiens, MMAC-SF;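 note: growth inhibition of human MMAC-SF cells, read out with a cell viability assay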
Description: SANGER: Inhibition of human MMAC-SF cell growth in a cell viability assay.

MN-60 = conditions: Homo sapiens, MN-60;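 note: growth inhibition of the MN-60 cell line, determined with a cell viability assay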
Description: SANGER: Inhibition of human MN-60 cell growth in a cell viability assay.

MZ1-PC = conditions: Homo sapiens, MZ1-PC;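 note: cell viability assay measuring growth inhibition of human MZ1-PC cells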
Description: SANGER: Inhibition of human MZ1-PC cell growth in a cell viability assay.

NB13 = conditions: Homo sapiens, NB13;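 note: cell viability readout measuring growth inhibition of human NB13 cells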
Description: SANGER: Inhibition of human NB13 cell growth in a cell viability assay.

NCI-H1355 = conditions: Homo sapiens, NCI-H1355;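 note: growth inhibition of human NCI-H1355 cells, read out by a cell viability assay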
Description: SANGER: Inhibition of human NCI-H1355 cell growth in a cell viability assay.

NCI-H1838 = conditions: Homo sapiens, NCI-H1838;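 note: growth inhibition of NCI-H1838 cells, determined with a cell viability readout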
Description: SANGER: Inhibition of human NCI-H1838 cell growth in a cell viability assay.

NCI-H2126 = conditions: Homo sapiens, NCI-H2126;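 note: growth inhibition of the cancer cell line, determined with a cell viability readout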
Description: SANGER: Inhibition of human NCI-H2126 cell growth in a cell viability assay.

NCI-H226 = conditions: Homo sapiens, NCI-H226;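 note: cell viability read-out used to gauge growth inhibition of the cells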
Description: SANGER: Inhibition of human NCI-H226 cell growth in a cell viability assay.

NCI-H510A = conditions: Homo sapiens, NCI-H510A;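 note: growth inhibition of NCI-H510A cells, read out with a cell viability assay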
Description: SANGER: Inhibition of human NCI-H510A cell growth in a cell viability assay.

NCI-H82 = conditions: Homo sapiens, NCI-H82;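 note: growth inhibition of NCI-H82 cells, measured with a cell viability readout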
Description: SANGER: Inhibition of human NCI-H82 cell growth in a cell viability assay.

SNU1 = conditions: Homo sapiens, SNU1;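 note: growth inhibition of human NCI-SNU-1 cells, measured with a cell viability assay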
Description: SANGER: Inhibition of human NCI-SNU-1 cell growth in a cell viability assay.

NH-12 = conditions: Homo sapiens, NH-12;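 note: growth inhibition of NH-12 cells, read out with a cell viability assay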
Description: SANGER: Inhibition of human NH-12 cell growth in a cell viability assay.

NKM-1 = conditions: Homo sapiens, NKM-1;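 note: growth inhibition of NKM-1 cells, read out with a cell viability assay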
Description: SANGER: Inhibition of human NKM-1 cell growth in a cell viability assay.

OMC-1 = conditions: Homo sapiens, OMC-1;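 note: growth inhibition of the OMC-1 cell line, measured by a cell viability assay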
Description: SANGER: Inhibition of human OMC-1 cell growth in a cell viability assay.

ONS-76 = conditions: Homo sapiens, ONS-76;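 note: growth inhibition of human ONS-76 cells, read out with a cell viability assay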
Description: SANGER: Inhibition of human ONS-76 cell growth in a cell viability assay.

OVCAR-4 = conditions: Homo sapiens, OVCAR-4;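 note: growth inhibition of human OVCAR-4 cells, measured with a cell viability assay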
Description: SANGER: Inhibition of human OVCAR-4 cell growth in a cell viability assay.

QIMR-WIL = conditions: Homo sapiens, QIMR-WIL;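 note: growth inhibition of QIMR-WIL cells, read out with a cell viability assay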
Description: SANGER: Inhibition of human QIMR-WIL cell growth in a cell viability assay.

RCC10RGB = conditions: Homo sapiens, RCC10RGB;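 note: growth inhibition of human RCC10RGB cells, read out by a cell viability assay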
Description: SANGER: Inhibition of human RCC10RGB cell growth in a cell viability assay.

RPMI-8866 = conditions: Homo sapiens, RPMI-8866
Description: SANGER: Inhibition of human RPMI-8866 cell growth in a cell viability assay.

SF-268 = conditions: Homo sapiens, SF-268;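 note: growth inhibition of SF-268 cells determined with a cell viability assay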
Description: SANGER: Inhibition of human SF268 cell growth in a cell viability assay.

SK-LMS-1 = conditions: Homo sapiens, SK-LMS-1;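 note: growth inhibition of human SK-LMS-1 cells, read out with a cell viability assay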
Description: SANGER: Inhibition of human SK-LMS-1 cell growth in a cell viability assay.

SNB-75 = conditions: Homo sapiens, SNB-75;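 note: cell viability assay measuring growth inhibition of human SNB-75 cells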
Description: SANGER: Inhibition of human SNB75 cell growth in a cell viability assay.

BB49-HNC = conditions: Homo sapiens, BB49-HNC;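 note: cell viability assay read-out, reported as inhibition of BB49-HNC cell growth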
Description: SANGER: Inhibition of human BB49-HNC cell growth in a cell viability assay.

Becker = conditions: Homo sapiens, Becker;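 note: growth inhibition of Becker cells, read out with a cell viability assay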
Description: SANGER: Inhibition of human Becker cell growth in a cell viability assay.

C2BBe1 = conditions: Homo sapiens, C2BBe1;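 note: growth inhibition of C2BBe1 cells, read out through a viability assay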
Description: SANGER: Inhibition of human C2BBe1 cell growth in a cell viability assay.

TE-6 = conditions: Homo sapiens, TE-6;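 note: growth inhibition of TE-6 cells, read out with a cell viability assay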
Description: SANGER: Inhibition of human TE-6 cell growth in a cell viability assay.

TGBC24TKB = conditions: Homo sapiens, TGBC24TKB;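 note: growth inhibition of human TGBC24TKB cells, read out with a cell viability assay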
Description: SANGER: Inhibition of human TGBC24TKB cell growth in a cell viability assay.

no-10 = conditions: Homo sapiens;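 note: growth inhibition of no-10 cells, read out with a cell viability assay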
Description: SANGER: Inhibition of human no-10 cell growth in a cell viability assay.

CCRF-CEM = conditions: Homo sapiens, CCRF-CEM;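 note: inhibition of CCRF-CEM cell growth, measured by a cell viability assay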
Description: SANGER: Inhibition of human CCRF-CEM cell growth in a cell viability assay.

Molecule COC1=CC(c2cc3ccccc3[nH]2)=N/C1=C\c1[nH]c(C)cc1C [OBATOCLAX MESYLATE] has a pIC50 (COLO-824) of 6.17, a pIC50 (DEL) of 7.08 and a pIC50 (DSH1) of 5.35. It also gave a pIC50 (DU-4475) of 6.79, a pIC50 (EW-13) of 7.36 and a pIC50 (GCIY) of 6.51. The pIC50 (GI-1) was 6.56, the pIC50 (GOTO) was 5.37 and the pIC50 (HC-1) was 5.71. The pIC50 (HCC2218) was 5.62, the pIC50 (IST-MES1) was 6.54 and the pIC50 (IST-SL1) was 5.18. It also gave a pIC50 (J-RT3-T3-5) of 6.93, a pIC50 (K5) of 6.27 and a pIC50 (KLE) of 5.78. The pIC50 (KP-N-YS) was 6.10, the pIC50 (KU812 cell line) was 6.00 and the pIC50 (L-428) was 6.43. The pIC50 (LAMA-84) was 5.59, the pIC50 (LNCaP-Clone-FGC) was 5.64 and the pIC50 (MMAC-SF) was 7.12. For the same molecule, the pIC50 (MN-60) was 7.00, the pIC50 (MZ1-PC) was 6.97 and the pIC50 (NB13) was 7.19. The pIC50 (NCI-H1355) was 6.82, the pIC50 (NCI-H1838) was under 4.80 and the pIC50 (NCI-H2126) was 5.65. For the same molecule, the pIC50 (NCI-H226) was 7.18, the pIC50 (NCI-H510A) was 6.11 and the pIC50 (NCI-H82) was 5.48. It also gave a pIC50 (SNU1) of 6.92, a pIC50 (NH-12) of 6.27 and a pIC50 (NKM-1) of over 7.20. It also gave a pIC50 (OMC-1) of 6.14, a pIC50 (ONS-76) of 7.69 and a pIC50 (OVCAR-4) of 6.69. It also gave a pIC50 (QIMR-WIL) of 6.88, a pIC50 (RCC10RGB) of 5.94 and a pIC50 (RPMI-8866) of 6.88. For the same molecule, the pIC50 (SF-268) was 7.24, the pIC50 (SK-LMS-1) was 6.50 and the pIC50 (SNB-75) was 6.25. It also gave a pIC50 (BB49-HNC) of 5.87, a pIC50 (Becker) of 5.78 and a pIC50 (C2BBe1) of 5.62. It also gave a pIC50 (TE-6) of 5.98, a pIC50 (TGBC24TKB) of 5.43 and a pIC50 (no-10) of 5.84. It also gave a pIC50 (CCRF-CEM) of 6.11.
For CC(=O)O[C@H]1C(=O)[C@@]2(C)[C@H]([C@H](OC(=O)c3ccccc3)[C@]3(O)C[C@H](OC(=O)[C@H](O)[C@@H](NC(=O)c4ccccc4)c4ccccc4)C(C)=C1C3(C)C)[C@]1(OC(C)=O)CO[C@@H]1C[C@@H]2O [PACLITAXEL], the pIC50 (COLO-824) was under 6.99, the pIC50 (DEL) was 8.07 and the pIC50 (DSH1) was under 6.99. It also gave a pIC50 (DU-4475) of 7.37, a pIC50 (EW-13) of under 6.99 and a pIC50 (GCIY) of under 6.99. The pIC50 (GI-1) was 7.86, the pIC50 (GOTO) was under 6.99 and the pIC50 (HC-1) was 8.14. For the same molecule, the pIC50 (HCC2218) was under 6.99, the pIC50 (IST-MES1) was 7.10 and the pIC50 (IST-SL1) was 7.52. It also gave a pIC50 (J-RT3-T3-5) of 7.62, a pIC50 (K5) of 7.14 and a pIC50 (KLE) of under 6.99. It also gave a pIC50 (KP-N-YS) of under 6.99, a pIC50 (KU812 cell line) of 7.69 and a pIC50 (L-428) of under 6.99. For the same molecule, the pIC50 (LAMA-84) was under 6.99, the pIC50 (LNCaP-Clone-FGC) was under 6.99 and the pIC50 (MMAC-SF) was 7.34. The pIC50 (MN-60) was under 6.99, the pIC50 (MZ1-PC) was 9.14 and the pIC50 (NB13) was 8.31. It also gave a pIC50 (NCI-H1355) of 8.04, a pIC50 (NCI-H1838) of under 6.99 and a pIC50 (NCI-H2126) of 7.56. It also gave a pIC50 (NCI-H226) of under 6.99, a pIC50 (NCI-H510A) of 8.18 and a pIC50 (NCI-H82) of 7.37. The pIC50 (SNU1) was under 6.99, the pIC50 (NH-12) was under 6.99 and the pIC50 (NKM-1) was under 6.99. For the same molecule, the pIC50 (OMC-1) was under 6.99, the pIC50 (ONS-76) was 7.69 and the pIC50 (OVCAR-4) was 8.04. For the same molecule, the pIC50 (QIMR-WIL) was 7.99, the pIC50 (RCC10RGB) was under 6.99 and the pIC50 (RPMI-8866) was 7.24. The pIC50 (SF-268) was 7.94, the pIC50 (SK-LMS-1) was 8.40 and the pIC50 (SNB-75) was 7.81. For the same molecule, the pIC50 (BB49-HNC) was under 6.99, the pIC50 (Becker) was 8.14 and the pIC50 (C2BBe1) was under 6.99. The pIC50 (TE-6) was 8.24, the pIC50 (TGBC24TKB) was 8.12 and the pIC50 (no-10) was 8.44. It also gave a pIC50 (CCRF-CEM) of 8.06.
N[C@@H](CSC(c1ccccc1)(c1ccccc1)c1ccccc1)C(=O)O [S-TRITYL-L-CYSTEINE] was tested, and the pIC50 (COLO-824) was under 5.29, the pIC50 (DEL) was 5.85 and the pIC50 (DSH1) was under 5.29. It also gave a pIC50 (DU-4475) of 5.82, a pIC50 (EW-13) of under 5.29 and a pIC50 (GCIY) of 5.74. For the same molecule, the pIC50 (GI-1) was under 5.29, the pIC50 (GOTO) was under 5.29 and the pIC50 (HC-1) was 5.98. For the same molecule, the pIC50 (HCC2218) was under 5.29, the pIC50 (IST-MES1) was under 5.29 and the pIC50 (IST-SL1) was 5.36. The pIC50 (J-RT3-T3-5) was 6.01, the pIC50 (K5) was 5.98 and the pIC50 (KLE) was under 5.29. For the same molecule, the pIC50 (KP-N-YS) was under 5.29, the pIC50 (KU812 cell line) was under 5.29 and the pIC50 (L-428) was 5.49. The pIC50 (LAMA-84) was 5.50, the pIC50 (LNCaP-Clone-FGC) was under 5.29 and the pIC50 (MMAC-SF) was 5.57. The pIC50 (MN-60) was under 5.29, the pIC50 (MZ1-PC) was 5.79 and the pIC50 (NB13) was 5.70. The pIC50 (NCI-H1355) was 6.03, the pIC50 (NCI-H1838) was under 5.29 and the pIC50 (NCI-H2126) was 5.67. For the same molecule, the pIC50 (NCI-H226) was under 5.29, the pIC50 (NCI-H510A) was 5.86 and the pIC50 (NCI-H82) was 5.92. For the same molecule, the pIC50 (SNU1) was under 5.29, the pIC50 (NH-12) was under 5.29 and the pIC50 (NKM-1) was under 5.29. The pIC50 (OMC-1) was under 5.29, the pIC50 (ONS-76) was under 5.29 and the pIC50 (OVCAR-4) was 5.42. For the same molecule, the pIC50 (QIMR-WIL) was under 5.29, the pIC50 (RCC10RGB) was under 5.29 and the pIC50 (RPMI-8866) was under 5.29. It also gave a pIC50 (SF-268) of 5.50, a pIC50 (SK-LMS-1) of under 5.29 and a pIC50 (SNB-75) of 5.56. For the same molecule, the pIC50 (BB49-HNC) was under 5.29, the pIC50 (Becker) was 6.21 and the pIC50 (C2BBe1) was under 5.29. It also gave a pIC50 (TE-6) of 5.41, a pIC50 (TGBC24TKB) of 5.65 and a pIC50 (no-10) of 5.71. The pIC50 (CCRF-CEM) was 5.68.
Molecule CCN(CC)CCNC(=O)c1c(C)[nH]c(/C=C2\C(=O)Nc3ccc(F)cc32)c1C [SUNITINIB] has a pIC50 (COLO-824) of under 5.10, a pIC50 (DEL) of 5.68 and a pIC50 (DSH1) of under 5.10. It also gave a pIC50 (DU-4475) of 5.36, a pIC50 (EW-13) of under 5.10 and a pIC50 (GCIY) of under 5.10. The pIC50 (GI-1) was under 5.10, the pIC50 (GOTO) was under 5.10 and the pIC50 (HC-1) was 5.26. For the same molecule, the pIC50 (HCC2218) was under 5.10, the pIC50 (IST-MES1) was under 5.10 and the pIC50 (IST-SL1) was under 5.10. The pIC50 (J-RT3-T3-5) was 5.22, the pIC50 (K5) was under 5.10 and the pIC50 (KLE) was under 5.10. For the same molecule, the pIC50 (KP-N-YS) was under 5.10, the pIC50 (KU812 cell line) was 5.17 and the pIC50 (L-428) was under 5.10. The pIC50 (LAMA-84) was 5.57, the pIC50 (LNCaP-Clone-FGC) was under 5.10 and the pIC50 (MMAC-SF) was 5.21. The pIC50 (MN-60) was 5.12, the pIC50 (MZ1-PC) was 5.14 and the pIC50 (NB13) was under 5.10. It also gave a pIC50 (NCI-H1355) of 5.13, a pIC50 (NCI-H1838) of under 5.10 and a pIC50 (NCI-H2126) of under 5.10. The pIC50 (NCI-H226) was under 5.10, the pIC50 (NCI-H510A) was under 5.10 and the pIC50 (NCI-H82) was 5.13. The pIC50 (SNU1) was under 5.10, the pIC50 (NH-12) was under 5.10 and the pIC50 (NKM-1) was 7.01. It also gave a pIC50 (OMC-1) of under 5.10, a pIC50 (ONS-76) of under 5.10 and a pIC50 (OVCAR-4) of under 5.10. For the same molecule, the pIC50 (QIMR-WIL) was 5.44, the pIC50 (RCC10RGB) was under 5.10 and the pIC50 (RPMI-8866) was under 5.10. It also gave a pIC50 (SF-268) of 5.48, a pIC50 (SK-LMS-1) of 5.42 and a pIC50 (SNB-75) of under 5.10. For the same molecule, the pIC50 (BB49-HNC) was 5.43, the pIC50 (Becker) was under 5.10 and the pIC50 (C2BBe1) was under 5.10. It also gave a pIC50 (TE-6) of under 5.10, a pIC50 (TGBC24TKB) of under 5.10 and a pIC50 (no-10) of under 5.10. For the same molecule, the pIC50 (CCRF-CEM) was under 5.10.
